Patent US11285144B2, “Use of CDK8 inhibitors to treat diseases of inflammation and autoimmunity” (THE BROAD INSTITUTE, INC., priority 2016, dated 2022)
Entries after “also recorded” stand apart in the source; their conditions may differ.

How the values were obtained:
[1] = tested on: Zymosan A-stimulated BMDCs; test: Cytokine production by Zymosan A-stimulated BMDCs; assay type: cell-based, mouse
From the text: Towards the goal of identifying new mechanisms of IL-10 regulation, 59,346 small molecules were screened for the ability to enhance IL-10 production by activated bone marrow-derived dendritic cells (BMDCs) using a high-throughput assay developed previously (Sundberg et al., PNAS 111:12468-12473, 2014). Compounds were derived from both commercial collections and structurally and skeletally diverse libraries prepared by diversity-oriented synthesis (DOS). More than 60 hit compounds were identified that reproducibly enhance IL-10 production in a concentration-dependent manner (Table 1). Three distinct chemotypes were prioritized for follow-up based on potency and an initial analysis of structure-activity relationship (SAR) with respect to core scaffold, stereochemistry and side chains (FIG. 2a).
(§1) The pyridinyl tetrahydroquinoline BRD6989 (10) emerged as a prioritized hit in the screen (FIG. 2a and Table 2). […] Thus, BRD6989 enhances IL-10 production in activated human and murine macrophages and dendritic cells by a mechanism that appears most pronounced following stimulation of toll-like receptors-7 (TLR7) and TLR8 by R848.

[2] = tested on: BMDMs; test: Transcriptional profiling of stimulated BMDMs; assay type: cell-based, mouse
Description: To define systematically the role of CDK8 during innate immune activation, the transcriptional responses elicited by dCA or BRD6989 following stimulation of BMDMs were profiled with a panel of 10 microbial ligands or Sendai virus for time points from 15 min to 4 hours. BMDMs were chosen for these experiments because, like human and mouse DCs, they upregulate IL-10 in response to CDK8 inhibition (FIG. 5c), and they have been previously studied using the multiplexed pathway reporter assay described below (O'Connell, et al., Cell Syst 2:323-34, 2016). In this experiment, the transcriptional responses elicited by BRD6989 and dCA were highly correlated (FIG. 12a), again supporting CDK8 as a principle cellular target of BRD6989.

[3] = tested on: Cyclin C/CDK8 complexes in BMDCs; test: Cytokine production by R848-stimulated BMDCs from CcncΔ/Δ or Ccncf/f mice; assay type: cell-based, mouse
Description: Next, to determine whether IL-10 potentiation by CDK8 inhibitors requires functional Cyclin C/CDK8 complexes, differentiation was performed of BMDCs from CcncΔ/Δ mice in which Cyclin C can be specifically disrupted in hematopoietic cells relative to Ccncf/f littermates, which lack the polyinosinic:polycytidylic acid (polyI:C)-responsive Mx1-Cre (Li et al., Nature Cell Biology 16; 1080, 2014) (FIG. 11a). […] The impaired response of BMDCs lacking Cyclin C to BRD6989 and dCA are consistent with a model in which CDK8 restrains IL-10 production during activation of wild type myeloid cells.

[4] = tested on: BMDMs; test: TF-Seq pathway reporter assay in BMDMs; assay type: cell-based, mouse
Description: To identify CDK8-responsive signaling pathways, an integrative genomics approach termed transcription factor sequencing (TF-Seq) was applied, in which consensus transcription factor binding sites drive expression of 58 reporter constructs bearing unique sequence tags (O'Connell et al., Cell Syst 2:323-34, 2016).
Given that c-Jun's ability to activate transcription is tightly regulated by phosphorylation, it was determined whether CDK8 inhibition affects c-Jun phosphorylation in activated BMDCs.

[5] = tested on: mouse bone marrow-derived macrophages (BMDMs); test: IL-10 production in BMDMs activated with Zymosan A or R848; assay type: cell-based
From the text: as §1

[6] = tested on: naïve, splenic CD4+ T cells; test: IL-10 production during ex vivo differentiation of Tregs; assay type: cell-based
Description: FIG. 10—Cellular activities of CDK8 inhibitors. […] (b) Effect of CDK7 inhibitor THZ1 on viability and IL-10 production of R848-stimulated BMDCs (each point corresponds to mean±S.D.; n=4 biological replicates from 1 independent experiment). (c) IL-10 levels were quantified in tissue culture media generated during differentiation of naïve, splenic CD4+ T cells into Treg's in the presence of dCA (0.1 μM) or BRD6989 (5 μM) (each point correspond to mean±S.D.; n=3 biological replicates from 1 independent experiment; *, P<0.05; n.s., not significant using one-way ANOVA with Dunnett's post-test). Data from all panels is representative of at least 2 independent experiments.
(§2) Pre-treatment with these CDK8/19 inhibitors recapitulated the IL-10 potentiating activity of BRD6989 in both BMDCs (FIG. 9b) along with human DCs derived from two independent donors in the context of R848 stimulation (FIGS. 9c and 10a).

[7] = tested on: responder CD4+ T cells; test: Treg suppression of responder CD4+ T cell proliferation in vitro; assay type: cell-based, mouse; details: Tregs generated in the presence of CDK8 inhibitor
Description: FIG. 19—Suppressing T-cell proliferation in vitro. Treg cells are co-cultured at increasing dilutions with CFSE-labeled responder CD4+ T cells and their ability to suppress responder T cell proliferation upon anti-CD3/CD28 stimulation is assessed. Naive CD4+ T cells from Foxp3IRES-GFP mice were cultured under either optimal conditions for Treg differentiation (Treg Hi) or sub-optimal Treg differentiation conditions in the presence of BRD6989. The resulting GFP+ Treg cells were sorted by FACS. […] Assay was performed as described in eLife 2015; 4:e05920.
Imbalances between anti-inflammatory (FoxP3+ Treg) and pro-inflammatory (TH1 and TH17) CD4+ T cell lineages can lead to pathogenic inflammations in a number of diseases contexts. Therapeutic strategies that enhance FoxP3+ Treg differentiation and/or function are being pursued for treatment of immune and inflammatory disorders. Treatment of naïve CD4+ T cells in the presence of multiple structural classes of CDK8 inhibitors can enhance differentiation into FoxP3+Tregs (FIG. 16).

[8] = tested on: R848-stimulated BMDCs; test: Cytokine production by R848-stimulated BMDCs; assay type: cell-based, mouse
From the text: as §1, §2

[9] = tested on: STAT1; test: STAT1 phosphorylation in IFNγ-stimulated BMDCs; assay type: cell-based, mouse; details: IFNγ-induced
From the text: Together, these kinase profiling, binding assay, enzyme inhibition and cell-based data identify the Mediator-associated kinases CDK8, and to a lesser degree CDK19, as molecular targets of BRD6989.

[10] = molecular target: Cyclin C/CDK8 (Homo sapiens, UniProt P49336); test: Binding to Cyclin C/CDK8 complex
Sequence of Cyclin C/CDK8 (P49336 whole entry, species assumed): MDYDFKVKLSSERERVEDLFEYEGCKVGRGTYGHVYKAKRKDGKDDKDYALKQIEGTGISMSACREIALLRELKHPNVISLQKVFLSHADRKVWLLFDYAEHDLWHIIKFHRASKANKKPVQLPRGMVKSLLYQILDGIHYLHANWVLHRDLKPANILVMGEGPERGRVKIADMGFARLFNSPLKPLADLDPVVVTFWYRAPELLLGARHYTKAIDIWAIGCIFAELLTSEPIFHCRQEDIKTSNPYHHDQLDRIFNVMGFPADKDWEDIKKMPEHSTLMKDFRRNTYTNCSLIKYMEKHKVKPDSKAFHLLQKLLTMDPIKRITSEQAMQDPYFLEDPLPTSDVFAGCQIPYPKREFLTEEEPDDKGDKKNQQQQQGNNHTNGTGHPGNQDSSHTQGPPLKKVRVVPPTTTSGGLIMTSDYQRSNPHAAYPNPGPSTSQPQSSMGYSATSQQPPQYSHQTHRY
Sequence of Cyclin C/CDK8 (P24863 whole entry partner, species assumed): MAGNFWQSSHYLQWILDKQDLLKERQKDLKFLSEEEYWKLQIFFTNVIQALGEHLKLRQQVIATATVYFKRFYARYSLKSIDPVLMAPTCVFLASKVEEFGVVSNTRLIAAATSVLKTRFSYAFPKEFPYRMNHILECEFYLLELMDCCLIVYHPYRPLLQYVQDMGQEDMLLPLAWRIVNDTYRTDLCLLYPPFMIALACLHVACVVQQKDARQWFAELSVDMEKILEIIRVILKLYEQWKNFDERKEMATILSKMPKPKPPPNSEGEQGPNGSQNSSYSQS
From the text: Given that the pyridine core of BRD6989 is a common kinase-binding motif (Xing et al., J Comput Aided Mol Des 28:13-23, 2014), its activity against 414 kinases was profiled using a series of binding and activity assays. […] Binding of BRD6989 to CDK8, and its paralog CDK19, was confirmed using an orthogonal kinase-profiling format.

Structure (SMILES): CC1CCc2nc(N)c(C#N)c(-c3cccnc3)c2C1 (centres unmarked) [BRD6989]
- EC50 ([1]; Mus musculus, BMDC, pre-treatment 48 hr, Zymosan A 18 hr, read-out: IL-10 production EC50): ~1000 nM
- production of IL-12p40 ([1]; Zymosan A-induced): largely unchanged
- production of TNFα ([1]; Zymosan A-induced): largely unchanged
- release of IL-6 ([1]; Zymosan A-induced): suppressed
- production of IL-1β ([1]; Zymosan A-stimulated / activated BMDCs): largely unchanged
- IL-1β production ([1]; stimulation with R848 or Zymosan A): minimally elevates IL-1β production
- expression of interferon-inducible genes Ifit2, Cxcl10 and Rsad2 [2]: reduced expression of the interferon-inducible genes Ifit2, Cxcl10 and Rsad2
- IL-10 upregulation in Ccncf/f BMDCs [3]: remained intact
- IL-10 upregulation in CcncΔ/Δ BMDCs ([3]; Cyclin C deleted): failed to upregulate IL-10
- IL-6 production in CcncΔ/Δ BMDCs ([3]; saturating concentrations): no further reduction
- STAT1:STAT2 reporter activity ([4]; 2 hours after stimulation of BMDMs): suppressed induction of STAT1:STAT2 activity
- NF-κB activation ([4]; all stimuli tested): suppressed NF-κB activation to a varying degree
- IL-10 production [5]: increased IL-10 production; also recorded: up-regulates IL-10 production
- IL-10 production during Treg differentiation [6]: neither dCA nor BRD6989 dramatically increased IL-10 production
- suppression of CD4+ T cell proliferation by inhibitor-induced Tregs [7]: suppressed the proliferation of co-cultured responder CD4+ T cells in vitro at each dilution
- IL-10 production [8]: greater fold-increase in IL-10 production
- JAK-mediated phosphorylation of STAT1 Y701 [9]: did not affect
- phosphorylation of STAT1 at S727 [9]: inhibited; also recorded: suppresses phosphorylation
- phosphorylation of STAT1 at S727 ([9]; listed as BRD-6989): Dose dependent inhibition of CDK8 dependent
- IC50 [10]: ~200 nM
